Consider 1 molecule from patent publication US20260315468A1, “PHARMACEUTICAL COMPOSITION AND USE THEREOF” (SHANGHAI ALLIST PHARMACEUTICAL CO., LTD., priority 2022, published 2026).

In general, IC50 refers to the concentration needed to halve the response being measured. Low readings indicate inhibition by little substance, high ones a need for much substance.

For data set [1], the system named is EGFR T790M positive advanced non-small cell lung cancer. The note with it: oral, 80 mg daily dose; patients progressed after prior systematic anti-tumor therapy; cited from earlier work.
The next data set deals with Ba/F3 EGFR-L747S/G719A. The data set is described as follows: Anti-proliferation, CellTiter-Glo Luminescent Cell Viability Assay. Type of data set: cell-based. The note with it: Mus musculus, BaF3, 72 h, 3 days. The text has this: (§1) The objective of the test example 1 was to evaluate the anti-proliferation effect of Furmonertinib mesilate on 18 cell lines (Ba/F3 EGFR-G719S, Ba/F3 EGFR-S768I, Ba/F3 EGFR-G724S, Ba/F3 EGFR-L718Q, Ba/F3 EGFR-Del19/G724S, Ba/F3 EGFR-E709H, Ba/F3 EGFR-L747S, Ba/F3 EGFR-E709V, Ba/F3 EGFR-L747V, Ba/F3 EGFR-E709-710>D, Ba/F3 EGFR-E709A, Ba/F3 EGFR-Del19/C797S, Ba/F3 EGFR-L858R/C797S, Ba/F3 EGFR-L747S/G719A, Ba/F3-EGFR-L858R-L718V, Ba/F3-EGFR-L858R-L718Q, Ba/F3-EGFR-E709K-G719A, and Ba/F3 EGFR-L861Q) using standard CellTiter-Glo® Luminescent Cell Viability Assay. Further, AZD9291 was used as control compound.
(§2) Cell culture: Ba/F3 EGFR-G719S, Ba/F3 EGFR-S768I, Ba/F3 EGFR-G724S, Ba/F3 EGFR-L718Q, Ba/F3 EGFR-Del19/G724S, Ba/F3 EGFR-E709H, Ba/F3 EGFR-L747S, Ba/F3 EGFR-E709V, Ba/F3 EGFR-L747V, Ba/F3 EGFR-E709-710>D, Ba/F3 EGFR-E709A, Ba/F3 EGFR-Del19/C797S, Ba/F3 EGFR-L858R/C797S, Ba/F3 EGFR-L747S/G719A, Ba/F3-EGFR-L858R-L718V, Ba/F3-EGFR-L858R-L718Q, Ba/F3-EGFR-E709K-G719A, and Ba/F3 EGFR-L861Q engineered cells were obtained from Kyinno, and maintained at 37° C. with 5% CO2, in the RPMI1640 media supplemented with 10% fetal bovine serum.
(§3) The cells during the logarithmic growth period were harvested and counted by using blood counting chamber. The cell viability was over 90% which was determined by trypan blue assay. The cell concentration was adjusted with culture medium. 90 μl cell suspensions was added to two 96-well plates to obtain the final cell density of 3000 cells per well. The plates were incubated in humidified incubator at 37° C. with 5% CO2.
(§4) The solution of tested compounds (Furmonertinib mesilate and AZD9291) was diluted 1000-fold with DMSO. Then, said DMSO solution was diluted 100-fold with PBS (Phosphate Buffered Saline) to obtain 10× working solution. And 10× reference control solution was prepared by Phosphate Buffered Saline (PBS). 10 μl working solution (10×) was dispensed to each well (triplicate for each concentration). (The top concentration was 3160 nM, 3.16-fold dilution and 10 different concentrations. The final concentration of DMSO in culture medium was 0.1% [v/v]). The plate was cultured for 3 days.
(§5) On Day 3, CellTiter-Glo® reagent (a luciferase ATP bioluminescence detection reagent) was thawed, and then the cell plate was equilibrated at room temperature for approximately 30 minutes. 100 μl CellTiter-Glo® Reagent which was equal to the volume of cell culture medium present in each well was added. The obtained content was mixed for 5 minutes on an orbital shaker to induce cell lysis. The cell plate was incubated at room temperature for 20 minutes to stabilize luminescent signal. The luminescence was recorded by using Multi-mode Microplate Reader.
(§6) [formula] • blank control: medium control; • vehicle control: culture medium with 0.1% DMSO
(§7) The graphical curves were fitted using a nonlinear regression model with a sigmoidal dose response.
(In general: In ATP-based viability assays light output follows the ATP content of the culture.)

A further data set concerns Ba/F3 EGFR-L861Q. The description is as above. It counts as cell-based. The note with it: Mus musculus, BaF3, 72 h, 3 days.
Description: as §1, §2, §3, §4, §5, §6, §7

In another data set the test system is Ba/F3-EGFR-E709K-G719A. The description is as above. Type of data set: cell-based. The note with it: 72 h, 3 days.
Description: as §1, §2, §3, §4, §5, §6, §7

The test system of the next data set is Ba/F3 EGFR-S768I. The data set is described as above. Type of data set: cell-based. To be noted: Mus musculus, BaF3, 72 h, 3 days.
Description: as §1, §2, §3, §4, §5, §6, §7

The test system of the next data set is Ba/F3 EGFR-E709H. The data set is described as above. It counts as cell-based. To be noted: Mus musculus, BaF3, 72 h, 3 days.
Description: as §1, §2, §3, §4, §5, §6, §7

A further data set concerns Ba/F3 EGFR-L747S. Described as above. It counts as cell-based. To be noted: Mus musculus, BaF3, 72 h, 3 days.
Description: as §1, §2, §3, §4, §5, §6, §7

A further data set relates to Ba/F3 EGFR-Del19/G724S. Described as above. Type of data set: cell-based. To be noted: Mus musculus, BaF3, 72 h, 3 days.
Description: as §1, §2, §3, §4, §5, §6, §7

The subject of the next data set is Ba/F3 EGFR-E709A. The description is as above. The note with it: Mus musculus, BaF3, 72 h, 3 days. It counts as cell-based.
Description: as §1, §2, §3, §4, §5, §6, §7

Another data set deals with Ba/F3 EGFR-G724S. The description is as above. Type of data set: cell-based. The note with it: Mus musculus, BaF3, 72 h, 3 days.
Description: as §1, §2, §3, §4, §5, §6, §7

A further data set concerns Ba/F3 EGFR-E709-710 > D. The description is as above. Type of data set: cell-based. To be noted: Mus musculus, BaF3, 72 h, 3 days.
Description: as §1, §2, §3, §4, §5, §6, §7

In a further data set the test system is Ba/F3-EGFR-L858R-L718Q. The data set is described as above. It counts as cell-based. The note with it: 72 h, 3 days.
Description: as §1, §2, §3, §4, §5, §6, §7

In the next data set the test system is Ba/F3 EGFR-Del19/C797S. The description is as above. It counts as cell-based. The note with it: Mus musculus, BaF3, 72 h, 3 days.
Description: as §1, §2, §3, §4, §5, §6, §7

The next data set has as its system Ba/F3 EGFR-E709V. The data set is described as above. It counts as cell-based. The note with it: Mus musculus, BaF3, 72 h, 3 days.
Description: as §1, §2, §3, §4, §5, §6, §7

The subject of a further data set is Ba/F3 EGFR-L747V. The description is as above. To be noted: Mus musculus, BaF3, 72 h, 3 days. It counts as cell-based.
Description: as §1, §2, §3, §4, §5, §6, §7

In the next data set the test system is Ba/F3 EGFR-G719S. Described as above. The note with it: Mus musculus, BaF3, 72 h, 3 days. Type of data set: cell-based.
Description: as §1, §2, §3, §4, §5, §6, §7

For another data set, the system named is Ba/F3 EGFR-L718Q. Described as above. Type of data set: cell-based. To be noted: Mus musculus, BaF3, 72 h, 3 days.
Description: as §1, §2, §3, §4, §5, §6, §7

The next data set has as its system Ba/F3-EGFR-L858R-L718V. The description is as above. It counts as cell-based. The note with it: 72 h, 3 days.
Description: as §1, §2, §3, §4, §5, §6, §7

A further data set deals with Ba/F3 EGFR-L858R/C797S. Described as above. It counts as cell-based. To be noted: Mus musculus, BaF3, 72 h, 3 days.
Description: as §1, §2, §3, §4, §5, §6, §7

The subject of data set [2] is 18 Ba/F3 EGFR mutant cell lines. The data set is described as follows: Anti-proliferation effect on 18 cell lines (overall result in words). It counts as cell-based. To be noted: all 18 Ba/F3 EGFR mutant cell lines of Table 1.
Description: as §1, with “compound. […]” for “compound.”
The cells during the logarithmic growth period were harvested and counted by using blood counting chamber. The cell viability was over 90% which was determined by trypan blue assay. […]
On Day 3, CellTiter-Glo® reagent (a luciferase ATP bioluminescence detection reagent) was thawed, and then the cell plate was equilibrated at room temperature for approximately 30 minutes. […] The luminescence was recorded by using Multi-mode Microplate Reader. […]

For data set [3] the following is noted: orally, once per day, 20 mg-240 mg; cited from earlier work.

As to `C=CC(=O)Nc1cc(Nc2nccc(-c3cn(C)c4ccccc34)n2)c(OCC(F)(F)F)nc1N(C)CCN(C)C` [Furmonertinib mesilate], the anti-tumor effect entry in data set [1] is on record as “relatively good anti-tumor effect”. Further, the disease progression result in [1] is reported as “can alleviate or stabilize the disease progression”. The IC50 in the data set with Ba/F3 EGFR-L747S/G719A was found to be 0.0165 µM; in the data set with Ba/F3 EGFR-L861Q, 0.0038 µM; in the data set with Ba/F3-EGFR-E709K-G719A, 0.039 µM; in the data set on Ba/F3 EGFR-S768I, 0.0216 µM; with Ba/F3 EGFR-E709H, 0.0313 µM; with Ba/F3 EGFR-L747S, 0.015 µM. The IC50 stood at 0.00384 µM with Ba/F3 EGFR-Del19/G724S; 0.0179 µM in the data set with Ba/F3 EGFR-E709A; 0.0213 µM in the data set on Ba/F3 EGFR-G724S; 0.0896 µM with Ba/F3 EGFR-E709-710 > D; 0.289 µM in the data set on Ba/F3-EGFR-L858R-L718Q; 1.22 µM in the data set on Ba/F3 EGFR-Del19/C797S. Further, the IC50 turned out to be 0.0143 µM in the data set with Ba/F3 EGFR-E709V; 0.0316 µM in the data set with Ba/F3 EGFR-L747V; 0.0121 µM in the data set on Ba/F3 EGFR-G719S; 0.501 µM in the data set on Ba/F3 EGFR-L718Q; 0.0239 µM in the data set with Ba/F3-EGFR-L858R-L718V; 2.21 µM in the data set on Ba/F3 EGFR-L858R/C797S. Moreover, the anti-proliferation effect result in [2] is “good anti-proliferation effect”. In addition, the “adverse events of subjects” value in data set [3] is “mild or moderate”. In addition, the dose-related toxic reaction result in data set [3] is “does not occur”. The tolerance and safety result in [3] was “the tolerance and the safety are good”.
